Here are results for 1 compound from patent publication US7001913B1, “Aminopiperidine derivatives as antibacterials” (SmithKline Beecham P.L.C., priority 1999, dated 2006).

The subject of this test is S. aureus Oxford, S. aureus WCUH29, S. pneumoniae 1629, S. pneumoniae N1387, S. pneumoniae ERY 2. As to the kind of experiment: MIC of test compounds against various organisms. Type of test: cell-based. As to conditions: against one or more of S. aureus Oxford. The protocol: The MIC (μg/ml) of test compounds against various organisms was determined: S. aureus Oxford, S. aureus WCUH29, S. pneumoniae 1629, S. pneumoniae N1387, S. pneumoniae ERY 2.

`CCCCCCCNC1CCN(C[C@H](O)c2ccnc3ccc(OC)cc23)CC1C(N)=O` (mixture of isomers) [Example 4, cis-3-(R/S)-Aminocarbonyl-4-(S/R)-heptylamino-1-[2-(R)-hydroxy-2-(6-methoxyquinolin-4-yl)]ethylpiperidine dioxalate]: the MIC is not above 1 µg/mL.

Broadly, the MIC is the smallest concentration in the dilution series that meets the test's criterion for growth inhibition.
